pIC50: −log10 of the molar value.
target: PI3K (Homo sapiens, UniProt P42336); assay: Fluorescence polarization assay for PI3K; type: biochemical; settings: PI3Kα; read-out: PI3Kα IC50;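 also: PI3K kinase reaction on PIP2 with ATP, 30-60 min, product sensed by GST-GRP with red probe in fluorescence polarization (mP), controls without enzyme and at zero time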
Sequence (P42336 whole entry): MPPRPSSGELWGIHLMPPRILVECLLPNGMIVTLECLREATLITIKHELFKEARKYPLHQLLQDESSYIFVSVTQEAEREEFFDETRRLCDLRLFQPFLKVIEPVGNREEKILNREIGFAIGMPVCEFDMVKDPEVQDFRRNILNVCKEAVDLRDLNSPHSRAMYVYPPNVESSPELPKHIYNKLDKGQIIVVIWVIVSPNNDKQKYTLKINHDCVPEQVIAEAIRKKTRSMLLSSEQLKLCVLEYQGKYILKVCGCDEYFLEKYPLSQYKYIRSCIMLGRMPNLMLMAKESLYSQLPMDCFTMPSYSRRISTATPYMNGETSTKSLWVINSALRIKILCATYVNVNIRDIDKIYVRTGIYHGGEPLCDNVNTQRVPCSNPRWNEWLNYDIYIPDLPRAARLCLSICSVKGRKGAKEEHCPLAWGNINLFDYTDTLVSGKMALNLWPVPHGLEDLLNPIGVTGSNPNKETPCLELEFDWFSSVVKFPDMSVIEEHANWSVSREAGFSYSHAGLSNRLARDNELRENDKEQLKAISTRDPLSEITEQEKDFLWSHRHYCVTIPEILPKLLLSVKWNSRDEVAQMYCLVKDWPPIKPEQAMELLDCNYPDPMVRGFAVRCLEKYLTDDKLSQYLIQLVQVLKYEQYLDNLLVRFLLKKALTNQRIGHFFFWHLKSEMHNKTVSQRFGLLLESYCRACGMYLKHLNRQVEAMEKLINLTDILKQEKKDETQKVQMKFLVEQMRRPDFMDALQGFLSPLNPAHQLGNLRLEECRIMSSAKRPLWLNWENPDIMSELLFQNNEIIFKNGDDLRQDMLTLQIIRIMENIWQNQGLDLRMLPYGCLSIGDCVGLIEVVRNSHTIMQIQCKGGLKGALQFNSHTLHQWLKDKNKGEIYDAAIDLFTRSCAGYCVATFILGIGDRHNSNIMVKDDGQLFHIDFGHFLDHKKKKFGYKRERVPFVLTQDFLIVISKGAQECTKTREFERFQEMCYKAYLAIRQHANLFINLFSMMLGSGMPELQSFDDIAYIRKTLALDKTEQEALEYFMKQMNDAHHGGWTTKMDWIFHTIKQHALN
Sequence (P27986 whole entry partner): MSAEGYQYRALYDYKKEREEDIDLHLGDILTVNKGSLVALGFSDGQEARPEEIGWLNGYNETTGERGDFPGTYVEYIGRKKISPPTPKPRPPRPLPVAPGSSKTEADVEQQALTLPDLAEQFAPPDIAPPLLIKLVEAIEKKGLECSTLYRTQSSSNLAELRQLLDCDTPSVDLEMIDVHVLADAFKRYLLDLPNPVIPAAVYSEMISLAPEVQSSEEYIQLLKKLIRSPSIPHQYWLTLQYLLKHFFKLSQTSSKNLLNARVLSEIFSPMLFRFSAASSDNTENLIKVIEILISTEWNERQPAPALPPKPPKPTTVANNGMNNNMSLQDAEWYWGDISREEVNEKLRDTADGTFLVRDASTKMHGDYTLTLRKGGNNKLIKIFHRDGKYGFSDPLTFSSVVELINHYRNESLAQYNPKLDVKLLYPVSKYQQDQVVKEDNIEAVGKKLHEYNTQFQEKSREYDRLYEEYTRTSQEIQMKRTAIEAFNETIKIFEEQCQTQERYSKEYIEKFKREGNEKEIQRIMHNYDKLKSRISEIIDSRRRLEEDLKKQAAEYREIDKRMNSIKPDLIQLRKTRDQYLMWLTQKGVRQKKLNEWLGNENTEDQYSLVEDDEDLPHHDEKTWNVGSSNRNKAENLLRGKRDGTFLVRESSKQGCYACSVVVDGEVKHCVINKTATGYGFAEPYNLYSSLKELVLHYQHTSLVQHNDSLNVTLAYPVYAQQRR

| pIC50 | Compound |
| --- | --- |
| 6.44 | N#CNC(=O)Nc1ccc(-c2nc(N3CCOCC3)c3cnn(C4CCN(Cc5cccnc5)CC4)c3n2)cc1 [Compound 653, N′-cyano-N-(4-{4-morpholin-4-yl-1-[1-(pyridin-3-ylmethyl)piperidin-4-yl]-1H-pyrazolo[3,4-d]pyrimidin-6-yl}phenyl)carbamimidic acid] |
| 6.46 | N#CN=C(N)Nc1ccc(-c2nc(N3CCOCC3)c3cnn(C4CCN(C(=O)c5cccnc5)CC4)c3n2)cc1 [Compound 655, 2-cyano-1-(4-{4-morpholin-4-yl-1-[1-(pyridin-3-ylcarbonyl)piperidin-4-yl]-1H-pyrazolo[3,4-d]pyrimidin-6-yl}phenyl)guanidine] |
| 6.42 | CNC(=NC#N)Nc1ccc(-c2nc(N3CCOCC3)c3cnn(C4CCN(C(=O)c5cccnc5)CC4)c3n2)cc1 [Compound 656, 2-cyano-1-methyl-3-(4-{4-morpholin-4-yl-1-[1-(pyridin-3-ylcarbonyl)piperidin-4-yl]-1H-pyrazolo[3,4-d]pyrimidin-6-yl}phenyl)guanidine] |
| 6.45 | O=C(Nc1ccc(-c2nc(N3CCOCC3)c3cnn(C4CCN(C(=O)c5cccnc5)CC4)c3n2)cc1)NC1CC1 [Compound 659, 1-cyclopropyl-3-(4-{4-morpholin-4-yl-1-[1-(pyridin-3-ylcarbonyl)piperidin-4-yl]-1H-pyrazolo[3,4-d]pyrimidin-6-yl}phenyl)urea] |
| 6.80 | CNC(=O)Nc1ccc(-c2nc(N3CCOCC3)c3cnn(C4CCN(C(=O)c5ccncc5)CC4)c3n2)cc1 [Compound 661, 1-{4-[1-(1-isonicotinoylpiperidin-4-yl)-4-morpholin-4-yl-1H-pyrazolo[3,4-d]pyrimidin-6-yl]phenyl}-3-methylurea] |
| 6.70 | CNC(=O)Nc1ccc(-c2nc(N3CCOCC3)c3cnn(C4CCN(C(=O)c5cnccn5)CC4)c3n2)cc1 [Compound 666, 1-methyl-3-(4-{4-morpholin-4-yl-1-[1-(pyrazin-2-ylcarbonyl)piperidin-4-yl]-1H-pyrazolo[3,4-d]pyrimidin-6-yl}phenyl)urea] |
| 6.95 | CNC(=O)Nc1ccc(-c2nc(N3CCOCC3)c3cnn(C4CCN(Cc5ccncc5)CC4)c3n2)cc1 [Compound 670, 1-methyl-3-(4-{4-morpholin-4-yl-1-[1-(pyridin-4-ylmethyl)piperidin-4-yl]-1H-pyrazolo[3,4-d]pyrimidin-6-yl}phenyl)urea] |
| 5.30 | Nc1cccc(-c2nc(N3CCOCC3)c3cnn(C4CCN(C(=O)c5cccnc5)CC4)c3n2)n1 [Compound 680, 6-{4-morpholin-4-yl-1-[1-(pyridin-3-ylcarbonyl)piperidin-4-yl]-1H-pyrazolo[3,4-d]pyrimidin-6-yl}pyridin-2-amine] |
| 5.99 | COC(=O)Nc1ccc(-c2nc(N3CCOCC3)c3cnn(C4CCN(C(=O)c5ccccc5)CC4)c3n2)cc1 [Compound 686, methyl {4-[1-(1-benzoylpiperidin-4-yl)-4-morpholin-4-yl-1H-pyrazolo[3,4-d]pyrimidin-6-yl]phenyl}carbamate] |
| 6.00 | COC(=O)Nc1ccc(-c2nc(N3CCOCC3)c3cnn(C4CCN(C(=O)c5ccc(F)cc5)CC4)c3n2)cc1 [Compound 689, methyl (4-{1-[1-(4-fluorobenzoyl)piperidin-4-yl]-4-morpholin-4-yl-1H-pyrazolo[3,4-d]pyrimidin-6-yl}phenyl)carbamate] |
| 6.05 | COC(=O)Nc1ccc(-c2nc(N3CCOCC3)c3cnn(C4CCN(C(=O)c5ccccc5OC)CC4)c3n2)cc1 [Compound 690, methyl (4-{1-[1-(2-methoxybenzoyl)piperidin-4-yl]-4-morpholin-4-yl-1H-pyrazolo[3,4-d]pyrimidin-6-yl}phenyl)carbamate] |
| 6.14 | COC(=O)Nc1ccc(-c2nc(N3CCOCC3)c3cnn(C4CCN(C(=O)N5CCN(C)CC5)CC4)c3n2)cc1 [Compound 692, methyl [4-(1-{1-[(4-methylpiperazin-1-yl)carbonyl]piperidin-4-yl}-4-morpholin-4-yl-1H-pyrazolo[3,4-d]pyrimidin-6-yl)phenyl]carbamate] |
| 6.10 | COC(=O)Nc1ccc(-c2nc(N3CCOCC3)c3cnn(C4CCN(C(=O)c5ccc(F)cc5F)CC4)c3n2)cc1 [Compound 693, methyl (4-{1-[1-(2,4-difluorobenzoyl)piperidin-4-yl]-4-morpholin-4-yl-1H-pyrazolo[3,4-d]pyrimidin-6-yl}phenyl)carbamate] |
| 5.74 | COC(=O)Nc1ccc(-c2nc(N3CCOCC3)c3cnn(C4CCN(Cc5cccnc5OC)CC4)c3n2)cc1 [Compound 696, methyl [4-(1-{1-[(2-methoxypyridin-3-yl)methyl]piperidin-4-yl}-4-morpholin-4-yl-1H-pyrazolo[3,4-d]pyrimidin-6-yl)phenyl]carbamate] |
| 6.21 | COC(=O)Nc1ccc(-c2nc(N3CCOCC3)c3cnn(C4CCN(Cc5ccc(Cl)nc5)CC4)c3n2)cc1 [Compound 698, methyl [4-(1-{1-[(6-chloropyridin-3-yl)methyl]piperidin-4-yl}-4-morpholin-4-yl-1H-pyrazolo[3,4-d]pyrimidin-6-yl)phenyl]carbamate] |
| 6.10 | COC(=O)Nc1ccc(-c2nc(N3CCOCC3)c3cnn(C4CCN(Cc5ccccc5Cl)CC4)c3n2)cc1 [Compound 699, methyl (4-{1-[1-(2-chlorobenzyl)piperidin-4-yl]-4-morpholin-4-yl-1H-pyrazolo[3,4-d]pyrimidin-6-yl}phenyl)carbamate] |

| pIC50 | Compound |
| --- | --- |
| 5.84 | COC(=O)Nc1ccc(-c2nc(N3CCOCC3)c3cnn(C4CCN(CC(N)=O)CC4)c3n2)cc1 [Compound 700, methyl (4-{1-[1-(2-amino-2-oxoethyl)piperidin-4-yl]-4-morpholin-4-yl-1H-pyrazolo[3,4-d]pyrimidin-6-yl}phenyl)carbamate] |
| 6.23 | COC(=O)Nc1ccc(-c2nc(N3CCOCC3)c3cnn(C4CCN(CC(=O)c5ccccc5)CC4)c3n2)cc1 [Compound 701, methyl (4-{4-morpholin-4-yl-1-[1-(2-oxo-2-phenylethyl)piperidin-4-yl]-1H-pyrazolo[3,4-d]pyrimidin-6-yl}phenyl)carbamate] |
| 5.70 | C=CC(=O)N1CCC(n2ncc3c(N4CCOCC4)nc(-c4ccc(NC(=O)OC)cc4)nc32)CC1 [Compound 702, methyl {4-[1-(1-acryloylpiperidin-4-yl)-4-morpholin-4-yl-1H-pyrazolo[3,4-d]pyrimidin-6-yl]phenyl}carbamate] |
| 5.97 | COC(=O)Nc1ccc(-c2nc(N3CCOCC3)c3cnn(C4CCNCC4)c3n2)cc1 [Compound 703, methyl [4-(4-morpholin-4-yl-1-piperidin-4-yl-1H-pyrazolo[3,4-d]pyrimidin-6-yl)phenyl]carbamate] |
| 5.39 | Nc1ccc(-c2nc(N3CCOCC3)c3cnn(C4CCN(C(=O)c5cccnc5)CC4)c3n2)c(F)c1 [Compound 704, 3-fluoro-4-{4-morpholin-4-yl-1-[1-(pyridin-3-ylcarbonyl)piperidin-4-yl]-1H-pyrazolo[3,4-d]pyrimidin-6-yl}aniline] |
| 5.79 | CCNC(=O)Nc1ccc(-c2nc(N3CCOCC3)c3cnn(C4CCN(C(=O)c5cccnc5)CC4)c3n2)c(F)c1 [Compound 706, 1-ethyl-3-(3-fluoro-4-{4-morpholin-4-yl-1-[1-(pyridin-3-ylcarbonyl)piperidin-4-yl]-1H-pyrazolo[3,4-d]pyrimidin-6-yl}phenyl)urea] |
| 5.76 | O=C(NCCF)Nc1ccc(-c2nc(N3CCOCC3)c3cnn(C4CCN(C(=O)c5cccnc5)CC4)c3n2)c(F)c1 [Compound 707, 1-(2-fluoroethyl)-3-(3-fluoro-4-{4-morpholin-4-yl-1-[1-(pyridin-3-ylcarbonyl)piperidin-4-yl]-1H-pyrazolo[3,4-d]pyrimidin-6-yl}phenyl)urea] |
| 5.51 | CCNC(=O)Nc1cc(F)c(-c2nc(N3CCOCC3)c3cnn(C4CCN(C(=O)c5cccnc5)CC4)c3n2)cc1F [Compound 710, 1-(2,5-difluoro-4-{4-morpholin-4-yl-1-[1-(pyridin-3-ylcarbonyl)piperidin-4-yl]-1H-pyrazolo[3,4-d]pyrimidin-6-yl}phenyl)-3-ethylurea] |
| 5.53 | O=C(NCCF)Nc1cc(F)c(-c2nc(N3CCOCC3)c3cnn(C4CCN(C(=O)c5cccnc5)CC4)c3n2)cc1F [Compound 711, 1-(2,5-difluoro-4-{4-morpholin-4-yl-1-[1-(pyridin-3-ylcarbonyl)piperidin-4-yl]-1H-pyrazolo[3,4-d]pyrimidin-6-yl}phenyl)-3-(2-fluoroethyl)urea] |
| 5.45 | O=C(Nc1cc(F)c(-c2nc(N3CCOCC3)c3cnn(C4CCN(C(=O)c5cccnc5)CC4)c3n2)cc1F)NC1CC1 [Compound 712, 1-cyclopropyl-3-(2,5-difluoro-4-{4-morpholin-4-yl-1-[1-(pyridin-3-ylcarbonyl)piperidin-4-yl]-1H-pyrazolo[3,4-d]pyrimidin-6-yl}phenyl)urea] |
| 6.76 | O=C(Nc1ccccc1)Nc1cc(F)c(-c2nc(N3CCOCC3)c3cnn(C4CCN(C(=O)c5cccnc5)CC4)c3n2)cc1F [Compound 713, 1-(2,5-difluoro-4-{4-morpholin-4-yl-1-[1-(pyridin-3-ylcarbonyl)piperidin-4-yl]-1H-pyrazolo[3,4-d]pyrimidin-6-yl}phenyl)-3-phenylurea] |
| 5.54 | FC(F)(F)CN1CCC(n2ncc3c(N4CCOCC4)nc(-c4ccc5[nH]ccc5c4)nc32)CC1 [Compound 715, 6-(1H-indol-5-yl)-4-morpholin-4-yl-1-[1-(2,2,2-trifluoroethyl)piperidin-4-yl]-1H-pyrazolo[3,4-d]pyrimidine] |
| 6.54 | CNC(=O)Nc1ccc(-c2nc(N3CCOCC3)c3cnn(C4CCN(C(=O)COC)CC4)c3n2)cc1 [Compound 718, 1-(4-{1-[1-(methoxyacetyl)piperidin-4-yl]-4-morpholin-4-yl-1H-pyrazolo[3,4-d]pyrimidin-6-yl}phenyl)-3-methylurea] |
| 5.78 | CC(=O)Nc1ccc(-c2nc(N3CCOCC3)c3cnn(C4CCCCO4)c3n2)cc1 (stereo not shown) [Compound 925, N-{4-[4-morpholin-4-yl-1-(tetrahydro-2H-pyran-2-yl)-1H-pyrazolo[3,4-d]pyrimidin-6-yl]phenyl}acetamide] |
| 6.98 | CNC(=O)Nc1ccc(-c2nc(N3CCOCC3)c3cn[nH]c3n2)cc1 [Compound 927, 1-methyl-3-[4-(4-morpholin-4-yl-1H-pyrazolo[3,4-d]pyrimidin-6-yl)phenyl]urea] |

From patent US20080234262A1 (Wyeth, priority 2007, published 2008)
